Earlier results on 2 molecules are cited in US20190290635A1, “METHODS OF TREATING BRAIN CANCER USING AGENTS THAT ALTER ACTIVITY OF A METABOLIC PATHWAY” (Clear Creek Bio, Inc., priority 2018, published 2019).

For series [1] the following is noted: 43 patients; patient with papillary carcinoma of the thyroid; cited from earlier work.
For series [2] the following is noted: 650 mg/m^2 brequinar (days 1, 8 and 15) with 75 mg/m^2 cisplatin (day 1); cited from earlier work.

Structures are written as SMILES.

As for `Cc1c(-c2ccc(-c3ccccc3F)cc2)nc2ccc(F)cc2c1C(=O)O` [Brequinar sodium], in series [1], the tumor response observed entry is “One mixed response”.
In the case of `Cc1c(-c2ccc(-c3ccccc3F)cc2)nc2ccc(F)cc2c1C(=O)O` [Brequinar, 6-fluoro-2-(2′-fluoro-1,1′ biphenyl-4-yl)-3-methyl-4-quinoline carboxylic acid], the “modification of individual drug pharmacokinetic parameters in combination with cisplatin” value in series [2] is “without significant modifications”.
